Results published in patent US9113629B2, “4-amino-6-(4-substituted-phenyl)-picolinates and 6-amino-2-(4-substituted-phenyl)-pyrimidine-4-carboxylates and their use as herbicides” (DOW AGROSCIENCES LLC, priority 2013, dated 2015).
Where two headings read alike, the source gives them in different places.

Legend:
[1] = system: Key Broadleaf Weed and Crop Species; assay: Post-emergent Test II herbicidal activity (Table 5); assay type: in vivo; settings: post-emergence, 336 h, post-emergent, 14 days after application; for pest or weed control at 70 g/ha: 70 g ai/ha; for pest or weed control at 140 g/ha: 140 g ai/ha
In short: (§1)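 Percent injury, 0 (none) to 100 (complete kill), was judged visually 14 d after spraying young plants at the first or second true leaf stage with compound in an acetone/DMSO aqueous carrier at 187 L/ha. Plants were kept in a greenhouse at 23–29 °C by day.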

[2] = system: Key Grass and Sedge Weeds as well as Grass Crops; assay: Post-emergent Test II herbicidal activity (Table 6); assay type: in vivo; settings: post-emergence, 336 h; for pest or weed control at 70 g/ha: application rate 70 g ai/ha; for pest or weed control at 140 g/ha: application rate 140 g ai/ha
In short: as §1

[3] = ABUTH: velvetleaf (Abutilon theophrasti), read-out: Visual Growth Reduction (%) 14 Days After Application ABUTH
[4] = AMARE: redroot pigweed (Amaranthus retroflexus), read-out: Visual Growth Reduction (%) 14 Days After Application AMARE
[5] = BRSNN: oilseed-rape, canola (Brassica napus), read-out: Visual Growth Reduction (%) 14 Days After Application BRSNN
[6] = CHEAL: lambsquarters (Chenopodium album), read-out: Visual Growth Reduction (%) 14 Days After Application CHEAL
[7] = EPHHL: wild poinsettia (Euphorbia heterophylla), read-out: Visual Growth Reduction (%) 14 Days After Application EPHHL
[8] = HELAN: sunflower (Helianthus annuus), read-out: Visual Growth Reduction (%) 14 Days After Application HELAN
[9] = VIOTR: wild pansy (Viola tricolor), read-out: Visual Growth Reduction (%) 14 Days After Application VIOTR
[10] = Triticum aestivum, TRZSS (wheat), read-out: Visual Growth Reduction (%) 14 Days After Application, TRZSS
[11] = CYPES: yellow nutsedge (Cyperus esculentus), read-out: Visual Growth Reduction (%) 14 Days After Application, CYPES
[12] = DIGSA: crabgrass (Digitaria sanguinalis), read-out: Visual Growth Reduction (%) 14 Days After Application, DIGSA
[13] = ECHCG: barnyardgrass (Echinochloa crus-galli), read-out: Visual Growth Reduction (%) 14 Days After Application, ECHCG
[14] = ORYSA: rice (Oryza sativa), read-out: Visual Growth Reduction (%) 14 Days After Application, ORYSA
[15] = SETFA: giant foxtail (Setaria faberi), read-out: Visual Growth Reduction (%) 14 Days After Application, SETFA
[16] = SORVU: grain sorghum (Sorghum vulgare), read-out: Visual Growth Reduction (%) 14 Days After Application, SORVU
[17] = ZEAMX: maize, corn (Zea mays), read-out: Visual Growth Reduction (%) 14 Days After Application, ZEAMX

Row | Structure (SMILES) | pest or weed control at 70 g/ha [1, 3] [%] | pest or weed control at 140 g/ha [1, 3] [%] | pest or weed control at 70 g/ha [1, 4] [%] | pest or weed control at 140 g/ha [1, 4] [%] | pest or weed control at 70 g/ha [1, 5] [%] | pest or weed control at 140 g/ha [1, 5] [%] | pest or weed control at 70 g/ha [1, 6] [%] | pest or weed control at 140 g/ha [1, 6] [%] | pest or weed control at 70 g/ha [1, 7] [%] | pest or weed control at 140 g/ha [1, 7] [%] | pest or weed control at 70 g/ha [1, 8] [%] | pest or weed control at 140 g/ha [1, 8] [%] | pest or weed control at 70 g/ha [1, 9] [%] | pest or weed control at 140 g/ha [1, 9] [%] | pest or weed control at 70 g/ha [2, 10] [%] | pest or weed control at 140 g/ha [2, 10] [%] | pest or weed control at 70 g/ha [2, 11] [%] | pest or weed control at 140 g/ha [2, 11] [%] | pest or weed control at 70 g/ha [2, 12] [%] | pest or weed control at 140 g/ha [2, 12] [%] | other results
1 | C=Cc1c(C(=O)OC)nc(-c2ccc(Br)cc2)c(F)c1N [Compound 57, methyl 4-amino-6-(4-bromophenyl)-5-fluoro-3-vinylpicolinate] | 85 to 94 | 85 to 94 | 85 to 94 | 95 to 100 | 60 to 74 | 75 to 84 | 85 to 94 | 85 to 94 | 85 to 94 | 85 to 94 | 85 to 94 | 85 to 94 | 0 to 29 | 0 to 29 | 0 to 29 | 0 to 29 | 95 to 100 | 95 to 100 | 0 to 29 | 0 to 29 | pest or weed control at 70 g/ha [2, 13]: 0 to 29%; pest or weed control at 140 g/ha [2, 13]: 0 to 29%; pest or weed control at 70 g/ha [2, 14]: 0 to 29%; pest or weed control at 140 g/ha [2, 14]: 0 to 29%; pest or weed control at 70 g/ha [2, 15]: 0 to 29%; pest or weed control at 140 g/ha [2, 15]: 0 to 29%; pest or weed control at 70 g/ha [2, 16]: 75 to 84%; pest or weed control at 140 g/ha [2, 16]: 95 to 100%; pest or weed control at 70 g/ha [2, 17]: 0 to 29%; pest or weed control at 140 g/ha [2, 17]: 0 to 29%; melting point: 93 to 94 °C
2 | COC(=O)c1nc(-c2cc(F)c(F)cc2F)c(F)c(N)c1Cl [Compound 200, Methyl 4-amino-3-chloro-5-fluoro-6-(2,4,5-trifluorophenyl)picolinate] | 95 to 100 | 95 to 100 | 95 to 100 | 95 to 100 | 95 to 100 | 95 to 100 | 95 to 100 | 95 to 100 | 95 to 100 | 95 to 100 | 85 to 94 | 95 to 100 | 75 to 84 | 95 to 100 | 30 to 44 | 30 to 44 | 0 to 29 | 45 to 59 | 75 to 84 | 75 to 84 | pest or weed control at 70 g/ha [2, 13]: 75 to 84%; pest or weed control at 140 g/ha [2, 13]: 75 to 84%; pest or weed control at 70 g/ha [2, 14]: 0 to 29%; pest or weed control at 140 g/ha [2, 14]: 0 to 29%; pest or weed control at 70 g/ha [2, 15]: 45 to 59%; pest or weed control at 140 g/ha [2, 15]: 75 to 84%; pest or weed control at 70 g/ha [2, 16]: 0 to 29%; pest or weed control at 140 g/ha [2, 16]: 0 to 29%; pest or weed control at 70 g/ha [2, 17]: 45 to 59%; pest or weed control at 140 g/ha [2, 17]: 60 to 74%; melting point: 143.5 to 144.5 °C
3 | COC(=O)c1nc(-c2ccc(I)cc2)c(Cl)c(N)c1Cl [Compound 96] | 95 to 100 | 95 to 100 | 85 to 94 | 95 to 100 | 75 to 84 | 85 to 94 | 95 to 100 | 95 to 100 | 75 to 84 | 45 to 59 | 95 to 100 | 95 to 100 | 0 to 29 | 0 to 29 | 60 to 74 | 75 to 84 | 95 to 100 | 95 to 100 | 60 to 74 | 75 to 84 | pest or weed control at 70 g/ha [2, 13]: 0 to 29%; pest or weed control at 140 g/ha [2, 13]: 60 to 74%; pest or weed control at 70 g/ha [2, 14]: 0 to 29%; pest or weed control at 140 g/ha [2, 14]: 0 to 29%; pest or weed control at 70 g/ha [2, 15]: 60 to 74%; pest or weed control at 140 g/ha [2, 15]: 75 to 84%; pest or weed control at 70 g/ha [2, 16]: 85 to 94%; pest or weed control at 140 g/ha [2, 16]: 85 to 94%; pest or weed control at 70 g/ha [2, 17]: 75 to 84%; pest or weed control at 140 g/ha [2, 17]: 75 to 84%; melting point: 187.2 to 189.9 °C
4 | COC(=O)c1nc(-c2ccc(I)c(F)c2)nc(N)c1OC [Compound 27, Methyl 6-amino-2-(3-fluoro-4-iodophenyl)-5-methoxypyrimidine-4-carboxylate] | 60 to 74 | 75 to 84 | 60 to 74 | 75 to 84 | 60 to 74 | 60 to 74 | 85 to 94 | 85 to 94 | 95 to 100 | 95 to 100 | 85 to 94 | 85 to 94 | 95 to 100 | 95 to 100 | 45 to 59 | 45 to 59 | 0 to 29 | 95 to 100 | 0 to 29 | 0 to 29 | pest or weed control at 70 g/ha [2, 13]: 0 to 29%; pest or weed control at 140 g/ha [2, 13]: 0 to 29%; pest or weed control at 70 g/ha [2, 14]: 0 to 29%; pest or weed control at 140 g/ha [2, 14]: 0 to 29%; pest or weed control at 70 g/ha [2, 15]: 0 to 29%; pest or weed control at 140 g/ha [2, 15]: 0 to 29%; pest or weed control at 70 g/ha [2, 16]: 0 to 29%; pest or weed control at 140 g/ha [2, 16]: 30 to 44%; pest or weed control at 70 g/ha [2, 17]: 0 to 29%; pest or weed control at 140 g/ha [2, 17]: 0 to 29%
